From ChEMBL document CHEMBL1201862, “PubChem BioAssay data set” (2004)
Each block holds one compound with its values, some of them ahead of it. Active and inactive are the calls of the source.

Legend:
[1] = molecular target: Dual specificity tyrosine-phosphorylation-regulated kinase 1A (Rattus norvegicus, UniProt Q63470); type: biochemical, Homo sapiens
[2] = cells; type: functional, cell-based
[3] = molecular target: T1, Trace amine-associated receptor 1 (Homo sapiens, UniProt Q96RJ0); test: Fluorescence-based cell-based high throughput dose response assay to identify agonists of the human trace amine associated receptor 1 (TAAR1).; type: functional
T1 sequence (Q96RJ0 whole entry): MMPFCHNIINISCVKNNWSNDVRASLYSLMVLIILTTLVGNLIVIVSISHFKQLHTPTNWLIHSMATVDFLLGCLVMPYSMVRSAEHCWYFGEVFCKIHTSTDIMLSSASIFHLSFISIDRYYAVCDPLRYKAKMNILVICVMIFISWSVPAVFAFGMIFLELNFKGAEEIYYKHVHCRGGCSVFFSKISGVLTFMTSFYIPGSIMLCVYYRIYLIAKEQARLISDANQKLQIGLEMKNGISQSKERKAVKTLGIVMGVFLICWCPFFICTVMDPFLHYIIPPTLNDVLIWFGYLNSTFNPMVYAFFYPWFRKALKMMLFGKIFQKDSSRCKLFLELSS

[4] = Luminescence Cell-Based Dose Confirmation HTS to Identify Inhibitors of Platelet Dense Granule Release. [Related pubchem assays: 1663 (Primary HTS), 1678 (Summary of Project)]; type: functional
[5] = cells; type: functional, cell-based; remark: listed apart in the source
[6] = molecular target: Luciferin 4-monooxygenase (Photinus pyralis, UniProt P08659); test: inhibition of purified Photinus pyralis luciferase – biochemical, luminescence, dose response (AID 1891)
Sequence of Luciferin 4-monooxygenase (P08659 whole entry): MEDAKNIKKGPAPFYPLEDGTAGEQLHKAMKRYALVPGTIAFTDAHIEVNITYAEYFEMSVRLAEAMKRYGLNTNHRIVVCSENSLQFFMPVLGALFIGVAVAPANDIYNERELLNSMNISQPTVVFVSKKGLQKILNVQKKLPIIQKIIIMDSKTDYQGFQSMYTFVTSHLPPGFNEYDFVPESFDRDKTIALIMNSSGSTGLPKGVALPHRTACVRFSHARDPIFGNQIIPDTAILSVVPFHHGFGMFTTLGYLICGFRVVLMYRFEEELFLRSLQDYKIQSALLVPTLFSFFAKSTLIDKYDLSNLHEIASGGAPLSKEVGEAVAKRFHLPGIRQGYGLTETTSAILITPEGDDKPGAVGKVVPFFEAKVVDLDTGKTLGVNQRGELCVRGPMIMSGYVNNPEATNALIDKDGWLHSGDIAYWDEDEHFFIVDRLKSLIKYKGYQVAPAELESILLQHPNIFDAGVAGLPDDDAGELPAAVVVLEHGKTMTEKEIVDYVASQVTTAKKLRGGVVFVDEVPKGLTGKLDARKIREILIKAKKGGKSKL

[7] = molecular target: T1, Trace amine-associated receptor 1; test: Counterscreen for agonists of the human trace amine associated receptor 1 (hTAAR1): Fluorescence-based cell-based high throughput dose response assay to identify hTAAR1 agonist that also desensitize TAAR1 receptor response.; type: functional
[8] = molecular target: Cytochrome P450 2D6 (Homo sapiens, UniProt P10635);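 note: CYP2D6 member of a cytochrome P450 panel assay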
Sequence of Cytochrome P450 2D6 (P10635 whole entry): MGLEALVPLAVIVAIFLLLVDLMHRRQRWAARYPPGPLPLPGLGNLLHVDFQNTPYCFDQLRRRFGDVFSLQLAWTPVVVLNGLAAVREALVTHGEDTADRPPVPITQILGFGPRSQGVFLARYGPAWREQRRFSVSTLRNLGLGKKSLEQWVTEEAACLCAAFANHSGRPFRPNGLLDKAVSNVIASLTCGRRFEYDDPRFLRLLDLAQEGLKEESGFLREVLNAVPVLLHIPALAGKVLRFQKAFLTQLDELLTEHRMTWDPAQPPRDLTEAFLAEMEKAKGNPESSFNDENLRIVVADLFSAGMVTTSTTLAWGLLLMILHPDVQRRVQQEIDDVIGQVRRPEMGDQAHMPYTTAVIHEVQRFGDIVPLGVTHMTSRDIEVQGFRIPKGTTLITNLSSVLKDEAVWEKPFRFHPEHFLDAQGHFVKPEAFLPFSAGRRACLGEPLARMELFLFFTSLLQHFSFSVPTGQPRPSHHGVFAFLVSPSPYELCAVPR

[9] = molecular target: Cytochrome P450 3A4 (Homo sapiens, UniProt P08684);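 note: CYP3A4 tested as one member of a cytochrome P450 panel screen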
Sequence of Cytochrome P450 3A4 (P08684 whole entry): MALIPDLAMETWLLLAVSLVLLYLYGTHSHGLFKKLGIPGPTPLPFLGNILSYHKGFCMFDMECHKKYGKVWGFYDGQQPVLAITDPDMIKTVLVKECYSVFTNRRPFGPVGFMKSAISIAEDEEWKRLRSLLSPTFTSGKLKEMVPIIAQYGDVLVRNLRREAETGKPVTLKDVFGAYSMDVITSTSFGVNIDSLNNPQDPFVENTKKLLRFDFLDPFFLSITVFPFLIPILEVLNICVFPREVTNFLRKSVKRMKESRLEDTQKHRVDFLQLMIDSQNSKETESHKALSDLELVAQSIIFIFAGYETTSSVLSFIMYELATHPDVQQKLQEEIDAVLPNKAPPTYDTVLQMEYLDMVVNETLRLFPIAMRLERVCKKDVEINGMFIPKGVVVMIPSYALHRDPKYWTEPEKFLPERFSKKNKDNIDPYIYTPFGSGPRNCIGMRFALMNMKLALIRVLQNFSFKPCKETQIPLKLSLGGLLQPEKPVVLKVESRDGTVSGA

[10] = molecular target: T2, Short transient receptor potential channel 4 (Mus musculus, UniProt Q9QUQ5); test: calcium entry via TRPC4 opening agents – cell-based, HEK293 TRPC4/mu-opioid, Fluo-4 calcium, dose response (AID 434937); type: functional
T2 sequence (Q9QUQ5 whole entry): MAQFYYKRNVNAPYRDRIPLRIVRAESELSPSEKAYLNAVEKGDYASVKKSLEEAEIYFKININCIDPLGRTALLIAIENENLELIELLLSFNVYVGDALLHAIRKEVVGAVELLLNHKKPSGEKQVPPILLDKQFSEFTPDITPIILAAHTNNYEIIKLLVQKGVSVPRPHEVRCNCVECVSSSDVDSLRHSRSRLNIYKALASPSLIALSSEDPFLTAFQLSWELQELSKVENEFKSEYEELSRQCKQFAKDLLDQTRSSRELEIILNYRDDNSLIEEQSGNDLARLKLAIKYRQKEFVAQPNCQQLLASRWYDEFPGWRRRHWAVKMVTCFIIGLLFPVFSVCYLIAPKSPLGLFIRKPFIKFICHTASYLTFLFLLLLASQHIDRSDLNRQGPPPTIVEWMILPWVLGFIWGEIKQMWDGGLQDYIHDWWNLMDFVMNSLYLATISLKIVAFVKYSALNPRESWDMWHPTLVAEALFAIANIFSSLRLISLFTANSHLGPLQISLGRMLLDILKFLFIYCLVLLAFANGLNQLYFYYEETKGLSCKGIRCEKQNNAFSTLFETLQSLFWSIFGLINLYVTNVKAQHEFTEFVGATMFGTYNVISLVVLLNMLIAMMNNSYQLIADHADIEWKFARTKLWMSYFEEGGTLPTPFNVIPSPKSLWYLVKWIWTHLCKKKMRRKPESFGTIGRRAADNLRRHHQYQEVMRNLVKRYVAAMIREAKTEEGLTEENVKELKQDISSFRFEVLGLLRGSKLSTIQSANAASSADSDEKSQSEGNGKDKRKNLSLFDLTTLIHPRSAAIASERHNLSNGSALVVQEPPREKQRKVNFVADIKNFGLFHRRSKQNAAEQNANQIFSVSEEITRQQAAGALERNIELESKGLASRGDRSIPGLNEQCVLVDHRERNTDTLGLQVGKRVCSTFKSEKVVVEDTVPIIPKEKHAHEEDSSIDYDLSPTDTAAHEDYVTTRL

[11] = system: INS1; test: INS-1E survival protection against cytokine death – cell-based, luminescence, retest, dose response (AID 449756); type: functional; details: Rattus norvegicus;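 note: cell death triggered by IL-1 beta plus TNF-alpha plus IFN-gamma mixture; protective hits raise ATP signal compared with cytokine alone wells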
[12] = molecular target: Troponin, cardiac muscle (Homo sapiens, UniProt P19429+P45379+P63316); test: Fluorescence-based biochemical high throughput dose response assay for activators of the calcium sensitivity of cardiac Regulated Thin Filaments (RTF). [Related pubchem assays (depositor defined):AID493008, AID493018, AID504382, AID504383]; type: protein-complex assay
[13] = system: Escherichia coli; test: microbe, parasite or virus in culture
[14] = molecular target: Cytochrome P450 2C19 (Homo sapiens, UniProt P33261); test: Cytochrome panel assay with activity outcomes. Panel member name: p450-cyp2c19 Compounds with AC50 equal or less than 10 uM are considered active; type: functional
Sequence of Cytochrome P450 2C19 (P33261 whole entry): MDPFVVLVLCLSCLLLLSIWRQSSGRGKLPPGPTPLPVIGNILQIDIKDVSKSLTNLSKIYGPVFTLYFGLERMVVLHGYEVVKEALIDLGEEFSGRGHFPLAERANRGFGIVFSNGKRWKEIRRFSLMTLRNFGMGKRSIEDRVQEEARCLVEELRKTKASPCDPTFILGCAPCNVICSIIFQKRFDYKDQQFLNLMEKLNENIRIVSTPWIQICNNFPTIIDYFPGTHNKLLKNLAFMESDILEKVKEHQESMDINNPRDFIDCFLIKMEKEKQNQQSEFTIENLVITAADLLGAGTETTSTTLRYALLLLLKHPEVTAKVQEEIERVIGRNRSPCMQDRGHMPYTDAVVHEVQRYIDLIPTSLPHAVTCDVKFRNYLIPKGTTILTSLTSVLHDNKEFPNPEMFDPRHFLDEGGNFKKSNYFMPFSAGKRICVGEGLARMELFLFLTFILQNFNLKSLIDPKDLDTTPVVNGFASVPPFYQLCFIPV

[15] = molecular target: Cytochrome P450 2C9 (Homo sapiens, UniProt P11712)
Sequence of Cytochrome P450 2C9 (P11712 whole entry): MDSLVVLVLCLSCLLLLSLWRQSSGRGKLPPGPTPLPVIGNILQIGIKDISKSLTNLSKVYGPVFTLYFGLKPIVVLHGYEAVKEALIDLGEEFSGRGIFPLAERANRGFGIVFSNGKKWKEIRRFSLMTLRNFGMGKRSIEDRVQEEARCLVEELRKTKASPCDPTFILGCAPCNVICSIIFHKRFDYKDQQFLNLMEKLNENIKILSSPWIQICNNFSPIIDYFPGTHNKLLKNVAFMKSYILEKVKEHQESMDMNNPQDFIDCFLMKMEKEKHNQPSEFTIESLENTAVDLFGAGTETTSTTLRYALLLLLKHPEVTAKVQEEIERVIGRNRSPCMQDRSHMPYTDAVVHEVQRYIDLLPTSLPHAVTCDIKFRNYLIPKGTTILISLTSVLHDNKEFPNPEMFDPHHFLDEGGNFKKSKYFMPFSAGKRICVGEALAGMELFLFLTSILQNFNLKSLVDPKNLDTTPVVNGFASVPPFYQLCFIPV

[16] = molecular target: T3, Cytochrome P450 1A2 (Homo sapiens, UniProt P05177);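 note: PubChem cytochrome P450 panel assay, CYP1A2 panel member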
T3 sequence (P05177 whole entry): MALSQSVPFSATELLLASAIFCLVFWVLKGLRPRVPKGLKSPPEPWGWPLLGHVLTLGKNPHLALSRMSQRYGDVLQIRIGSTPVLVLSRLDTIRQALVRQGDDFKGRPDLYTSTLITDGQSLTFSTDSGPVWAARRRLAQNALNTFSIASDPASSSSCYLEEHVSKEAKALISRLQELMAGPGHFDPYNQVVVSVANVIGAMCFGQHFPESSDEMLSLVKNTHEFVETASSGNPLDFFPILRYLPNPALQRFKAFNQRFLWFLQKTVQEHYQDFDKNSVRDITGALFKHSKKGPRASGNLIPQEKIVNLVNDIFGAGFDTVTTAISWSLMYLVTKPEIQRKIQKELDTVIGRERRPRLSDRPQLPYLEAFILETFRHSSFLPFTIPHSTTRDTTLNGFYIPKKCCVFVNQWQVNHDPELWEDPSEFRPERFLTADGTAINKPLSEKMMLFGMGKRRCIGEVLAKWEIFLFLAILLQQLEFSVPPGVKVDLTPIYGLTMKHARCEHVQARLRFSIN

SMILES: Nc1nc(Nc2cccc(F)c2)nc2ccccc12
AC50 [1]: 4.73 µM (active)
EC50 [2]: > 29.9 µM (inactive)
EC50 [3]: 0.364 µM (active)
EC50 [4]: 7.18 µM (active)
IC50 [5]: > 29.9 µM (inactive)
EC50 [6]: 0.853 µM (active)
IC50 [7]: 1.65 µM (active)

AC50 [8]: inconclusive
SMILES: CC(C)=NOC[C@@H](O)COCc1ccco1

AC50 [9]: inconclusive
SMILES: O=[N+]([O-])c1ccc(CSc2ncnc3c2ncn3[C@@H]2O[C@@H](CO)[C@@H](O)[C@H]2O)cc1

SMILES: CCc1n[nH]c(CCN)n1
EC50 [10]: 3.76 µM (active)

SMILES: CC1(C)CCN2CCC(C)(C)c3c(O)ccc1c32
AC50 [11]: 7.71 µM (active)
EC50 [12]: 3.33 µM (active)

SMILES: Clc1ccc(OCCNCCc2ccccc2)cc1
EC50 [2]: 21.9 µM (inactive)
EC50 [10]: 4.73 µM (active)
EC50 [3]: 3.81 µM (active)
IC50 [5]: > 29.9 µM (inactive)
IC50 [7]: 9.59 µM (active)

SMILES: O=C(N/N=C/C1=C(N2CCOCC2)C(=C\c2ccccc2)/CC1)Nc1ccccc1
AC50 [13]: 67.6 µM (active)

AC50 [14]: inactive
AC50 [15]: inactive
AC50 [16]: 39.8 µM (inconclusive)
AC50 [8]: inactive
AC50 [9]: inactive
SMILES: N[C@@H](CCC(=O)O)C(=O)O [GLUTAMIC ACID]
